Source: publication PMC6222789, “CF3-Substituted Mollugin 2-(4-Morpholinyl)-ethyl ester as a Potential Anti-inflammatory Agent with Improved Aqueous Solubility and Metabolic Stability” (Molecules : A Journal of Synthetic Chemistry and Natural …, 2018)

How the values were obtained:
[1] = Metabolic stability, human liver microsomes; assay type: in vitro ADME; settings: 1 μM
Description: (§1) Pooled human liver microsomes (150 donor) and dog, rat, mouse liver microsomes were obtained from BD Gentest Co. (Woburn, MA, USA). NADPH regeneration system was obtained from Promega. S-Mephenytoin, 4-hydroxymephenytoin, and 1’-hydroxymidazolam were purchased from Ultrafine Chemical Co. (Manchester, UK). All other chemicals and solvents were of the highest grade available. The metabolic stability assay was performed by incubation of human or selected animal liver microsomes (most often dog, rat and mouse), at 37 °C with a test compound at a final concentration of 1 μM, in the presence of 0.5 mg/mL microsomal protein and NADPH regeneration system, in a total volume of 100 μL of 100 mM phosphate buffer, pH 7.4. The incubation was started by the addition of NADPH regeneration system and terminated with 40 μL of ice-cold acetonitrile at 0 and 30 min. Precipitated proteins were removed by centrifugation at 10,000× g for 5 min at 4 °C. Aliquots of the supernatant were injected onto an LC-MS/MS system. Incubations terminated prior to the addition of NADPH regeneration system (time point 0 min) were used as standards, defined as 100%. Percent of the parent compound remaining was calculated by comparing peak area.

[2] = Metabolic stability, rat liver microsomes; assay type: in vitro ADME; settings: 30 min, 1 μM
Description: as §1

[3] = Metabolic stability, dog liver microsomes; assay type: in vitro ADME; settings: 30 min, 1 μM
Description: as §1

[4] = test system: IL-6-induced adhesion of U937 monocytic cells to HT-29 cells; assay: IL-6-induced colonic epithelial cell adhesion assay; assay type: cell-based, human; settings: for inhibition at 10 µM: Homo sapiens, Epithelial cell, U937 adhesion to HT-29 cells, IL-6-induced; for inhibition of IL-6-induced monocyte-epithelial adhesion: 10 μM
Description: (§2) Synthesized mollugin derivatives were subjected to the colonic epithelial cell adhesion assay, which mimics the initial stage of colon inflammation. The inhibition of TNF-α-induced or IL-6-induced adhesion of U937 monocytic cells to HT-29 cells in 10 μM solution of synthesized molecules was measured, and the results are summarized in Table 1 and Table 2. Mesalazine (2), a commercially available medication for the treatment of IBD, and mollugin were chosen as assay positive controls.
(§3) HT-29 human colonic epithelial cells and U937 human pre-monocytic cells were grown in RPMI 1640 medium supplemented with 10% FBS, 100 IU/mL penicillin, and 100 µg/mL streptomycin in a humidified incubator under 5% CO2/95% air.
(§4) U937 monocytic cell adhesion to colonic epithelial cells was evaluated using human U937 pre-monocytic cells, which were prelabeled with 2′,7′-bis(2-carboxyethyl)-5(6)-carboxyfluorescein acetoxymethyl ester (BCECF/AM, 10 μg/mL) for 1 h at 37 °C. HT-29 cells cultured in 24-well plates were pretreated with test compound, 5-ASA, or tofacitinib for 1 h prior to incubation with TNF-α (10 ng/mL) and IL-6 (5 ng/mL) for an additional 3 h. Cells were then co-incubated with BCECF/AM-prelabeled U937 cells (1 × 10^6 cells/well) for 30 min at 37 °C. Non-adhering U937 cells were removed, and the HT-29 cells and adherent U937 cells were washed twice with PBS. Images were captured and processed with a Nikon ECLIPSE TE2000-U microscope and NIS-Elements F software (Nikon, Tokyo, Japan). For quantitative analysis, other sets of cells were lysed in 0.1% Triton X-100 in Tris (0.1 M), and the fluorescence was measured using a fluorescence-detecting microplate reader (Promega , Madison, WI, USA) at […]. Experiments were performed in triplicate and repeated at least three times independently.

[5] = Metabolic stability, mouse liver microsomes; assay type: in vitro ADME; settings: 30 min, 1 μM
Description: as §1

[6] = test system: TNF-α-induced adhesion of U937 monocytic cells to HT-29 cells; assay: TNF-α-induced colonic epithelial cell adhesion assay; assay type: cell-based, human; settings: for inhibition at 10 µM: Homo sapiens, Epithelial cell, U937 adhesion to HT-29 cells, TNF-α-induced; for inhibition of TNF-α-induced monocyte-epithelial adhesion: 10 μM
Description: as §2, §3, §4

[7] = Plasma stability, rat plasma; assay type: in vitro ADME; settings: 2 h, 37 °C, 1 μM
Description: (§5) The plasma stability assay was performed by incubation of human or rat plasma with a test compound in a final concentration of 1 μM for 120 min at 37 °C. The incubation was terminated by addition of 40 μL of ice-cold acetonitrile and vortexing for 5 min. The precipitated proteins were removed by centrifugation at 14,000× g for 5 min at 4 °C. Aliquots of the supernatant were injected onto a Shimadzu Nexera XR LC system. Percentages of the parent compound remaining were calculated by comparing peak areas using the Xcalibur software (version 1.6.1, Waltham, MA, USA).

[8] = Plasma stability, human plasma; assay type: in vitro ADME; settings: 37 °C, 1 μM
Description: as §5

Row | Metabolic Stability (% Remain, 30 min) Human [1] [% Remain] | Metabolic Stability (% Remain, 30 min) Rat [2] [% Remain] | Metabolic Stability (% Remain, 30 min) Dog [3] [% Remain] | Metabolic Stability (% Remain, 30 min) Mouse [5] [% Remain] | Plasma Stability (% Remain, 2 h) Rat [7] [% Remain] | Plasma Stability (% Remain, 2 h) Human [8] [% Remain] | SMILES | inhibition at 10 µM [4] [%] | inhibition at 10 µM [6] [%] | inhibition of IL-6-induced monocyte-epithelial adhesion [4] | inhibition of TNF-α-induced monocyte-epithelial adhesion [6]
1 | 6 | 2 | 2 | 3 |  |  | CN(C)CCOC(=O)c1c2c(c3ccccc3c1O)OC(C)(C)C=C2 [6a, 2-(Dimethylamino)ethyl 6-hydroxy-2,2-dimethyl-2H-benzo[h]chromene-5-carboxylate] | 35.5 ± 4.3 | 38 ± 4.9 |  | 
2 | 12 | 7 | 9 | 8 |  |  | CN(C)CCCOC(=O)c1c2c(c3ccccc3c1O)OC(C)(C)C=C2 [6b, 3-(Dimethylamino)propyl 6-hydroxy-2,2-dimethyl-2H-benzo[h]chromene-5-carboxylate] | 34.8 ± 4.1 | 39.6 ± 2.9 |  | 
3 |  |  |  |  |  |  | CC1(C)C=Cc2c(C(=O)OCCN3CCCC3)c(O)c3ccccc3c2O1 [6c, 2-(Pyrrolidin-1-yl)ethyl 6-hydroxy-2,2-dimethyl-2H-benzo[h]chromene-5-carboxylate] | 12.4 ± 2.1 | 39.7 ± 5.7 | reduced % inhibition | good % inhibition
4 |  |  |  |  |  |  | CC1(C)C=Cc2c(C(=O)OCCc3ccccn3)c(O)c3ccccc3c2O1 [6j, 2-(Pyridin-2-yl)ethyl 6-hydroxy-2,2-dimethyl-2H-benzo[h]chromene-5-carboxylate] | 33.6 ± 5.9 | 43.1 ± 6.2 |  | 
5 | 10 | 2 | 6 | 2 |  |  | CC1(C)C=Cc2c(C(N)=O)c(O)c3ccccc3c2O1 [6k, 6-Hydroxy-2,2-dimethyl-2H-benzo[h]chromene-5-carboxamide] | 39.1 ± 4.7 | 42.6 ± 4.2 |  | 
6 | 13 | 1 | 1 | 2 |  |  | CNC(=O)c1c2c(c3ccccc3c1O)OC(C)(C)C=C2 [6l, 6-Hydroxy-N,2,2-trimethyl-2H-benzo[h]chromene-5-carboxamide] | 12.2 ± 4.4 | 45.4 ± 4.7 |  | 
7 |  |  |  |  |  |  | CCNC(=O)c1c2c(c3ccccc3c1O)OC(C)(C)C=C2 [6m, N-Ethyl-6-hydroxy-2,2-dimethyl-2H-benzo[h]chromene-5-carboxamide] | 25.8 ± 3.4 | 38.4 ± 5.7 |  | 
8 |  |  |  |  |  |  | CN1CCN(C(=O)c2c3c(c4ccccc4c2O)OC(C)(C)C=C3)CC1 [6n, (6-Hydroxy-2,2-dimethyl-2H-benzo[h]chromen-5-yl)(4-methylpiperazin-1-yl)methanone] | 34.2 ± 7.9 | 37.4 ± 3.3 |  | 
9 |  |  |  |  |  |  | CCN1CCN(C(=O)c2c3c(c4ccccc4c2O)OC(C)(C)C=C3)CC1 [6o] | 9.4 ± 2.1 | 46.2 ± 5.4 | reduced % inhibition | good % inhibition
10 | 52 | 78 | 52 | 82 | 2 | 39.5 | COC(=O)c1c2c(c3ccc(F)cc3c1O)OC(C)(C)C=C2 [14a, Methyl 8-fluoro-6-hydroxy-2,2-dimethyl-2H-benzo[h]chromene-5-carboxylate] | 59.4 ± 7.4 | 36.1 ± 7.6 |  | 
11 | 88 | 51 | 4 | 19 | 1 | 100 | COC(=O)c1c2c(c3ccc(C)cc3c1O)OC(C)(C)C=C2 [14b, Methyl 6-hydroxy-2,2,8-trimethyl-2H-benzo[h]chromene-5-carboxylate] | 23.4 ± 2.5 | 29.8 ± 7.2 |  | 
12 | 100 | 90 | 22 | 70 | 10 | 97 | COC(=O)c1c2c(c3ccc(C(F)(F)F)cc3c1O)OC(C)(C)C=C2 [14c, Methyl 6-hydroxy-2,2-dimethyl-8-(trifluoromethyl)-2H-benzo[h]chromene-5-carboxylate] | 39.3 ± 5.6 | 63.2 ± 10.8 |  | 
13 |  |  |  |  |  |  | COC(=O)c1c2c(c3cc(F)ccc3c1O)OC(C)(C)C=C2 [14d, Methyl 9-fluoro-6-hydroxy-2,2-dimethyl-2H-benzo[h]chromene-5-carboxylate] | 28 ± 5.6 | 24.9 ± 8.1 |  | 
14 | 78 | 9 | 10 | 10 | 91 | 100 | CC1(C)C=Cc2c(C(=O)OCCN3CCOCC3)c(O)c3cc(F)ccc3c2O1 [15a, 2-Morpholinoethyl 8-fluoro-6-hydroxy-2,2-dimethyl-2H-benzo[h]chromene-5-carboxylate] | 61.1 ± 10.9 | 36.6 ± 9.4 |  | 
15 | 41 | 9 | 57 | 18 | 55 | 100 | Cc1ccc2c3c(c(C(=O)OCCN4CCOCC4)c(O)c2c1)C=CC(C)(C)O3 [15b, 2-Morpholinoethyl 6-hydroxy-2,2,8-trimethyl-2H-benzo[h]chromene-5-carboxylate] | 54.3 ± 6.5 | 24.9 ± 3.5 |  | 
16 | 48 | 8 | 30 | 11 | 81 | 94 | CC1(C)C=Cc2c(C(=O)OCCN3CCOCC3)c(O)c3ccc(F)cc3c2O1 [15d, 2-Morpholinoethyl 9-fluoro-6-hydroxy-2,2-dimethyl-2H-benzo[h]chromene-5-carboxylate] | 75.6 ± 11.5 | 47 ± 8.9 |  | 
